Measurements from patent publication US20230405156A1, “METHODS OF DIAGNOSING AND PROGNOSING CANCERS OF THE HEAD AND NECK” (priority 2021, published 2023).

What was measured:
SSTR = details: five patients with primary EBV-positive NPC; cited from earlier work
[1] = test system: SSTR2 expression in C666-1 cells; assay: SSTR2 expression in C666-1 cells under pathway inhibitors; assay type: cell-based
[2] = test system: LMP1-induced SSTR2 expression in NP69 cells; assay: LMP1-induced SSTR2 expression in NP69 cells under pathway inhibitors; assay type: cell-based, human; details: NP69 cells expressing LMP1
From the text: FIGS. 2A-2K. EBV infection is associated with SSTR2 upregulation in NPC—in vitro experiments and external validation dataset. a Immunofluorescence analysis of EBNA1 (red) and SSTR2 (green) expression in two representative examples of cultured primary respiratory epithelial cells before and after infection with the epitheliotropic M81 EBV strain. Nuclei are counterstained with DAPI (blue); Replication (n=5). b Percentages of cells positive for EBNA1 or co-expression of SSTR2 and EBNA1 c LMP1 induces SSTR2 expression in NP69, an immortalized normal nasopharyngeal epithelial cell line (relative quantities of SSTR2 were calculated using the comparative threshold cycle method and normalized using human beta-actin as endogenous control. Data is presented as a ratio relative to vector control). d LMP1-mediated SSTR2 induction in NP69 cells is inhibited by ectopic expression of TRAF3, a negative regulator of NF-κB. e In NP69 cells, LMP1-induced SSTR2 expression is suppressed by the NF-κB inhibitor BAY 11-7085 and MEK inhibitor U0126. f Both CTAR1 and CTAR2 regions of LMP1 (FIG. 6) are essential for LMP1-mediated SSTR2 induction. […] The color of the samples is based on unsupervised hierarchical clustering. […] Middle panel, Microarray SSTR2 expression is positively correlated with viral LMP1 expression (W=129, p=0.041, Wilcoxon two-sided test). […]

NPC43 cells = assay: MTT-based cell viability assay (in vitro proliferation/survival); details: 7 days, dilutions starting from 10 μM
Experimental: (§1) Culture of the cell lines. C666-1 cells were cultured in RPMI-1640 with 25 mM Hepes (Lonza, Berlin, Germany) supplemented with 10% heat-inactivated FCS (Gibco, Carlsbad, CA), 2 mM L-Glutamine, 100 units/ml penicillin (Gibco), and 0.1 mg/ml streptomycin (Gibco). Cells were maintained at 37° C., 5% CO2 and passaged every 7 days at a 1:2 ratio using accutase (Sigma, St. Louis, MO, USA). Seventy-five percent of culture medium was replaced by fresh medium every 2-3 days. NPC43 and C17 cell lines were cultured in RPMI-1640 with 25 mM Hepes (Lonza, Berlin, Germany) supplemented with 10% heat-inactivated FCS (Gibco, Carlsbad, CA), 2 mM L-Glutamine, 100 units/ml penicillin (Gibco) and 0.1 mg/ml streptomycin (Gibco) and 4 μM Y27632 (Promocell, Heidelberg, Germany). Cells were maintained at 37° C., 5% CO2 and passaged 5 days at a 1:4 ratio using accutase (Sigma, St. Louis, MO, USA). Culture medium was replaced by fresh medium every 2 to 3 days.
(§2) MTT-based cell viability assay. Two days prior addition of test compounds, NPC cells were plated at a density of 2×10^4 cells/well in 96-well plates. Compounds were prepared as advised by manufacturers, diluted half logarithmic in medium and added to the wells in quadruplicate starting from 10 μM (30 μM for cisplatin). PEN-211 containing medium was removed after 2 h, cells were washed with PBS and fresh medium was added. Plates were incubated in a humified chamber for 7 days; 50% of medium were exchanged every other day with fresh drug dilutions. MTT (3-[4,5-dimethylthiazol-2-yl]-2,5 diphenyl tetrazolium bromide) reagent (20 μl/well of 5 mg/ml solution) (Sigma-Aldrich) was added and solubilized after 4 h using 100 μl of a […] SDS/0.01M HCl solution. Dual absorbance was measured after 5 h in a microplate reader (Epoch BioTek, BioTek Instruments, Bad Friedrichshall, Germany) using 550 nm as measurement and 655 nm as reference filter. After subtraction of background absorbance, fractions of surviving cells were obtained by normalization to the mean of nontreated samples.

C666-1 cells [3] = assay: as above; details: 7 days, dilutions starting from 10 μM
Experimental: as §1, §2

C666-1 cells [4] = assay: RNA-seq analysis of C666-1 cells treated with SSTR2-targeted drugs; assay type: cell-based; details: for cell senescence pathways (geneset enrichment) / pathways related to somatostatin biology such as interleukin signaling (geneset enrichment) / cell death/apoptotic pathways (geneset enrichment): 24 h post-treatment; for cell death/apoptotic pathways (geneset enrichment): lanreotide or octreotide; for SSTR2 expression (RNA-seq): lanreotide or octreotide treatment
Experimental: RNA-seq analysis. C666-1 cells were seeded at a density of 1×10^6/well in six-well plates 2 days prior to compound addition. […] Untreated and DMSO-treated (1:2000 in medium) wells were used as controls. 24 and 72 h post-PEN-221 addition, DNA and RNA extraction was performed from separate wells using Quick-DNA Plus and Direct-zol RNA Plus Kit (Zymo Research, Irvine, CA, USA) according to the manufacturers' instructions.
RNA concentration was normalized to 100 ng/50 μl and Illumina libraries prepared using a NEBNext Poly(A) mRNA Magnetic Isolation Module in conjunction with a NEBNext Ultra II Directional RNA Library Prep Kit (New England Biolabs), according to the manufacturer's instructions using adapters diluted 1:50. Libraries were quantitated using the Agilent High Sensitivity D1000 ScreenTape System on a 2200 Tapestation (Agilent), pooled at equimolar concentration, denatured and sequenced on a NextSeq 500 (Illumina). RNA sequencing transcript abundance was estimated from fastq files using the reference-free quantification tool salmon with the gencode GRCh37 transcript annotation. Differential expression analysis was performed using DESeq237 with treatment, time and batch (where applicable) as covariates. Geneset enrichment analysis was performed using the GSEA function from clusterProfiler, with the reactome database pathways on the gene DESeq2 Wald statistics and a minimum and maximum pathway size of 25 and 500, respectively.

SMILES | tumor uptake (SSTR) | SSTR2 expression [1] | LMP1-induced SSTR2 expression [2] | in vitro proliferation (NPC43 cells) | in vitro proliferation (C666-1 cells [3]) | cell senescence pathways (geneset enrichment) (C666-1 cells [4]) | pathways related to somatostatin biology such as interleukin signaling (geneset enrichment) (C666-1 cells [4]) | cell death/apoptotic pathways (geneset enrichment) (C666-1 cells [4]) | cell senescence pathways (geneset enrichment) (C666-1 cells [4]; listed as Lanreotide) | SSTR2 expression (RNA-seq) (C666-1 cells [4])
C[C@@H](O)[C@@H]1NC(=O)[C@H](CCCCN)NC(=O)[C@@H](Cc2c[nH]c3ccccc23)NC(=O)[C@H](Cc2ccc(O)cc2)NC(=O)[C@@H](NC(=O)[C@@H](Cc2ccccc2)NC(=O)CN2CCN(CC(=O)[O-])CCN(CC(=O)[O-])CCN(CC(=O)[O-])CC2)CSSC[C@@H](C(=O)N[C@H](CO)[C@@H](C)O)NC1=O.[68Ga+3] [68Ga-DOTA-(Tyr3)-octreotide, ^68Ga-labeled 1,4,7,10-tetraazacyclododecane-N,N9,N99,N999 tetraacetic acid-D-Phe1-Tyr3-octreotide (DOTA-TOC)] | increased uptake |  |  |  |  |  |  |  |  | 
CC(C)(C)c1ccc(S(=O)(=O)/C=C/C#N)cc1 [BAY 11-7085] |  | suppressed | suppressed |  |  |  |  |  |  | 
N#CC(=C(/N)Sc1ccccc1N)/C(C#N)=C(\N)Sc1ccccc1N [U0126] |  | suppressed | suppressed |  |  |  |  |  |  | 
CC(C)[C@@H]1NC(=O)[C@H](CCCCN)NC(=O)[C@@H](Cc2c[nH]c3ccccc23)NC(=O)[C@H](Cc2ccc(O)cc2)NC(=O)[C@@H](NC(=O)[C@H](N)Cc2ccc3ccccc3c2)CSSC[C@@H](C(=O)N[C@H](C(N)=O)[C@@H](C)O)NC1=O [lanreotide] |  |  |  | did not affect in vitro proliferation | did not affect in vitro proliferation | upregulation of senescence pathways | induced upregulation | no changes | upregulation of cell senescence pathways | did not affect SSTR2 expression
C[C@@H](O)[C@@H]1NC(=O)[C@H](CCCCN)NC(=O)[C@@H](Cc2c[nH]c3ccccc23)NC(=O)[C@H](Cc2ccccc2)NC(=O)[C@@H](NC(=O)[C@H](N)Cc2ccccc2)CSSC[C@@H](C(=O)N[C@H](CO)[C@@H](C)O)NC1=O [octreotide] |  |  |  | did not affect in vitro proliferation | did not affect in vitro proliferation | upregulation of cell senescence pathways | induced upregulation | no changes |  | did not affect SSTR2 expression
